Values joined by “and” are separate entries in the source; they are usually repeats but may differ in a detail not shown here. Identical values can stand only once.

Broadly, the IC50 is the midpoint of a concentration-inhibition curve.

In the assay the test system is S. Typhimurium GFP reporter counter-screen, fluorescence, 4 h. Briefly: nmpC-GFP reporter counter-screen in S. Typhimurium, dose response, counter-screen for PhoP regulon inhibitor project, Salmonella Typhimurium, GFP fluorescence (AID 2401).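 Also: S. typhimurium with Mg-insensitive nmpC-GFP reporter grown at 10 µM Mg2+; drop in reporter fluorescence reflects general culture growth inhibition.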 On the technique in general: A counterscreen serves to expose hits that act by an unwanted route or on another target.
Turning to `CCN(CC(=O)NC(C)(C)C)C(=O)COc1c(Cl)cc(Cl)c2ccc(C)nc12`, the IC50 is 82.4 µM.
Then `CN1CCN(c2c(F)cc3c(=O)c(C(=O)O)cn4c3c2SCC4)CC1`, with 8.06 µM and 8.09 µM; and `Nc1nc2ccccc2n1Cc1ccc(Cl)c(Cl)c1`, with 76.5 µM.
For the molecule `CCn1cc(C(=O)O)c(=O)c2cc(F)c(N3CCN(C(=S)NC(=O)c4ccccc4)CC3)cc21`, the half-inhibitory concentration (IC50) is 29.8 µM.
Take `NC1=NC[C@H](Cc2ccc(O)cc2)N1CCC12CC3CC(CC(C3)C1)C2`: the IC50 was 70.7 µM.
For `CCCC(=O)NC(c1cccs1)c1cc([N+](=O)[O-])c2cccnc2c1O` (stereo not given), the IC50 is 25.8 µM.
In the case of `O=[N+]([O-])c1cc(Cl)c2cccnc2c1O`, the IC50 was 1.62 µM.
Then `Nc1nc(F)nc2c1ncn2[C@@H]1O[C@H](CO)[C@@H](O)[C@H]1O`, with 32.8 µM.
As for `O=C(Cn1nc(CNc2ccc(Cl)cc2)[n+]2c1CCCCC2)c1ccc(Br)cc1`, the half-maximal inhibitory concentration (IC50) was 72.1 µM.
As to `Cc1nc2c(=O)n(C)c(=O)n(C)c2nc1Cl`, the IC50 was 106 µM.
On to `Cc1cccc(Nc2cc(C)c3c(O)cccc3n2)c1C`, for which the IC50 was 38.8 µM.
As for `CC(=O)NC(c1cccc([N+](=O)[O-])c1)c1ccc2cccnc2c1O` (stereo not given), the figure is 47.1 µM; as for `Cc1nc2c(=O)n(C)c(=O)nc-2n(C)n1`, 1.09 µM; as for `CO[C@H]1C=CO[C@@]2(C)Oc3c(C)c(O)c4c(O)c(c(C=NN5CCN(C)CC5)c(O)c4c3C2=O)NC(=O)C(C)=CC=C[C@H](C)[C@H](O)[C@@H](C)[C@@H](O)[C@@H](C)[C@H](OC(C)=O)[C@@H]1C`, 3.44 µM.
Then `NCC12CC3CC(C1)CC(c1ccc(Br)cc1)(C3)C2`, with 40.3 µM; and `COc1cccc(C2Nc3ccccc3C(=O)N2O)c1O` (stereo not given), with 138 µM; and `O=C(O)CCN1C(=O)CC(N2C(=O)/C(=C/c3ccc(Cl)cc3)SC2=S)C1=O` (stereo not given), with 20.6 µM.
As for `COc1ccccc1CNCC(O)Cn1c2ccccc2c2ccccc21` (stereo not given), the figure is 92 µM; as for `CN(C)c1ccc(O)c2c1CC1CC3[C@@H](N(C)C)C(=O)C(C(N)=O)=C(O)[C@]3(O)C(=O)C1=C2O` (stereo not given in full), 4.76 µM.
In the case of `COc1cc(Cc2cc(N)nc(N)n2)cc(OC)c1OC`, the IC50 is 0.74 µM.
Then `COc1ccc(CNC[C@@H](CCCCN(C)Cc2ccc(OC)cc2)N2C[C@H](c3ccccc3)N(CCc3ccc(Cl)c(Cl)c3)C(=O)C2=O)cc1`, with 45.7 µM.
Then `N=C(N)SCc1cn(-c2ccccc2)nc1-c1ccc(Br)cc1`, with 20.3 µM.
With `Cc1ccc(NC(=O)NCC2CCN(Cc3cccc(Cl)c3)CC2)cc1Cl`, the IC50 was 70.2 µM.
As for `CC(C(=O)NC1CCS(=O)(=O)C1)N1C(=O)/C(=C/c2ccc(Cl)cc2)SC1=S` (stereo not given), the figure is 11.6 µM; as for `CCCCCCCSc1cc(OC)c(CCN(C)C)cc1OC`, 57.2 µM; as for `Cc1ccc(Nc2cc(C)c3ccc(O)cc3n2)cc1C`, 146 µM.
Then `Cc1ccc(C(C[N+](=O)[O-])c2c(-c3ccccc3O)[nH][nH]c2=O)cc1` (stereo not given), with 14.9 µM; and `CCOC(=O)N1CCN(C(=O)c2cn(CC)c3cc(N4CCN(C)CC4)c(F)cc3c2=O)CC1`, with 12 µM.
As to `O=C(N/N=C/c1sc2ccccc2c1O)c1cccc2ccccc12`, the IC50 is 23.6 µM.
Then `O=C(O)Cc1sc(Nc2ccc(Cl)cc2)nc1-c1cccs1`, with 147 µM; and `CCOC(=O)C1=Nc2ccccc2C1=[N+]=[N-]`, with 42.6 µM.
Take `O=Nc1ccc(O)c2ncccc12`: the IC50 was 61.3 µM.
For `COC(=O)C1C(O)C(C)C(O)C(C)/C=C\C=C(/C)C(=O)Nc2c(C)c(OC(C)=O)c3c(c2O)C(=O)C(C)=C2OCOC(=C23)/C(C)=C/C(C)(O)C(O)C(C)C1O` (stereo not given), the IC50 was 22.2 µM.
Then `CC(C(=O)NC1C=CS(=O)(=O)C1)N1C(=O)/C(=C/c2ccc(Cl)cc2)SC1=S` (stereo not given), with 15.4 µM; and `COc1ccc(C(=O)Cn2nc(CNc3ccc(Br)cc3)[n+]3c2CCCCC3)cc1`, with 80.8 µM; and `Oc1ccc(CN2CCN(Cc3ccccc3)CC2)c2cccnc12`, with 35 µM.
Then `CCCCCCCCCCOC(=O)Cn1c(COc2cccc(C)c2)[n+](C)c2ccccc21`, with 19.7 µM.
As to `O=C(CSc1ccccn1)N/N=C/c1cc([N+](=O)[O-])ccc1O`, the IC50 is 34.9 µM.
As for `COc1cnc(-c2ccccn2)[nH]c1=O`, the figure is 35.3 µM; as for `Cc1ccc(Nc2c3c(nc4ccccc24)CCC3)cc1`, 122 µM; as for `C/C(=N\NC(=O)c1cc2ccccc2cc1O)c1ccccn1`, 17 µM.
Then `CC(C)Oc1ccc(Cc2cnc(N)nc2N)cc1`, with 34 µM.
Then `NC1=NC[C@@H](Cc2ccc(O)cc2)N1CCCCC1CCCCC1`, with 32.9 µM.
`CCn1cc(C(=O)NCCO)c(=O)c2cc(F)c(N3CCN(C)CC3)cc21`: the IC50 is 42.8 µM.
On to `CCCCCCCCCCOC(=O)Cn1c(COc2ccc(Cl)cc2)[n+](C)c2ccccc21`, for which the IC50 was 19.5 µM.
In the case of `CCN1/C(=C/C=C/c2sc3ccccc3[n+]2CC)Sc2ccccc21`, the IC50 was 32.9 µM.
As for `COC(=O)C1C(O)C(C)C(O)C(C)(O)/C=C\C=C(/C)C(=O)Nc2c(C)c(OC(C)=O)c3c(c2O)C(=O)C(C)=C2OCOC(=C23)/C(C)=C/C(C)(O)C(O)C(C)C1O` (stereo not given), the figure is 12.6 µM.
In the case of `NC1=NC2(CCCCC2)N=C(Nc2ccc(Br)cc2)N1`, the IC50 is 119 µM.
For the molecule `O=C(Nc1cccc(N=Cc2cc(Br)cc(Br)c2O)c1)c1ccco1`, the IC50 is 104 µM.
For `Clc1ccc(CN2CCC(c3nc4ccc(Cl)cc4[nH]3)CC2)cc1`, the IC50 was 22.4 µM.
As to `CNC[C@H](CC1CCCCC1)NC[C@H](Cc1ccccc1)NCCC12CC3CC(CC(C3)C1)C2`, the IC50 was 16.1 µM.
As for `Cc1ccc(/C=C/C(=O)c2ccccc(=O)c2O)cc1C`, the figure is 25 µM; as for `OCCN1CCN(Cc2cc(Cl)c3cccnc3c2O)CC1`, 75.2 µM; as for `CCN1CCN(C(c2ccc(C(F)(F)F)cc2)c2ccc3cccnc3c2O)CC1` (stereo not given), 39.4 µM.
`CC1CCc2c(N3CCC(O)CC3)c(F)cc3c(=O)c(C(=O)O)cn1c23` (stereo not given): the IC50 was 15.3 µM.
As for `c1ccc(-c2nnc(-c3ccccn3)nc2NC2CCCCC2)cc1`, the figure is 78.3 µM; as for `COc1cccc(/C=N\NC(=O)Cn2nnc3ccccc32)c1O`, 57.6 µM.
For `Cc1[nH]n(-c2ccccc2)c(=O)c1/C=N/Nc1nncc(-c2ccccc2)n1`, the IC50 was 19.1 µM.
Turning to `CC[C@H]1OC(=O)[C@H](C)[C@@H](O[C@H]2C[C@@](C)(OC)[C@@H](O)[C@H](C)O2)[C@H](C)[C@@H](O[C@@H]2O[C@H](C)C[C@H](N(C)C)[C@H]2O)[C@](C)(O)C[C@@H](C)CN(C)[C@H](C)[C@@H](O)[C@]1(C)O`, the IC50 was 2.37 µM.
For the molecule `CNc1cc(Cl)c2nonc2c1[N+](=O)[O-]`, the IC50 was 37.7 µM.
As for `CS(=O)(=O)c1ccc([C@@H](O)[C@@H](CF)NC(=O)C(Cl)Cl)cc1`, the figure is 16.6 µM; as for `O=C(N/N=C/c1cccc([N+](=O)[O-])c1O)c1cccs1`, 16.8 µM; as for `COc1ccc(OCC(O)CNc2ccc(Br)cc2)cc1` (stereo not given), 14.3 µM.
For `CCCCCc1ccc(OCCOCCn2c[n+](C)c3ccccc32)c(CCCCC)c1`, the IC50 was 63.2 µM.
As for `Cc1ccc(C(=O)Sc2cccccc2=O)cc1`, the figure is 9.74 µM; as for `NC1CCN(c2nc3c(cc2F)c(=O)c(C(=O)O)cn3-c2ccc(F)cc2F)C1` (stereo not given), 1.13 µM.
As for `Oc1c(C(c2ccccn2)N2CCOCC2)ccc2cccnc12` (stereo not given), the figure is 88.6 µM; as for `NC(N)=N/N=C/c1ccc(OCc2ccc(Cl)cc2)cc1`, 35.7 µM.
As for `CCCCCCCCCCOC(=O)Cn1c(COc2ccc(OC)cc2)[n+](C)c2ccccc21`, the IC50 is 21.2 µM and 22.3 µM.
As for `C=CCNc1ncnc2c1[nH]c1ccccc12`, the figure is 118 µM.
Then `Nc1nc(N2CCN(C/C=C/c3ccccc3)CC2)nc2ccccc12`, with 107 µM.
As for `O=C(Oc1c(Cl)cc(Cl)c2cccnc12)c1ccco1`, the figure is 21.6 µM.
For the molecule `CC1CCCC(C)N1/N=C/c1c[nH]c2ccc(Br)cc12` (stereo not given), the IC50 is 88.9 µM.
For `CCCCCCCCCCCCCCCC[n+]1cccc(C(=O)N(CC)CC)c1`, the IC50 was 20.1 µM.
Take `Cc1ccc(S(=O)(=O)/N=C2/C=C(Sc3ncn[nH]3)C(=O)c3ccccc32)c(C)c1`: the IC50 is 149 µM.
As to `O=c1[nH]cc(F)c(=O)[nH]1`, the IC50 was 20.5 µM.
For `O=C(NC(CO)Cc1ccc([N+](=O)[O-])cc1)C(Cl)Cl` (stereo not given), the IC50 was 12.7 µM.
On to `CN1CCN(C(c2ccccn2)c2cc(Cl)c3cccnc3c2O)CC1` (stereo not given), for which the IC50 was 43.9 µM.
As for `Cc1onc(-c2ccccc2)c1C(=O)NC(=S)NNC(=O)c1ccc(O)cc1O`, the figure is 119 µM.
Take `Cc1cccc(Nc2c3c(nc4ccccc24)CCC3)c1`: the IC50 was 109 µM.
For the molecule `CCN1/C(=C/C(C)=C/c2sc3ccccc3[n+]2CC)Sc2ccccc21`, the IC50 is 12.9 µM.
With `OC(c1cc(C(F)(F)F)nc2c(Cl)cc(Cl)cc12)C1CCCCN1` (stereo not given), the IC50 is 80.5 µM.
As to `Cc1ccc(Nc2nc(NCc3ccco3)c3ccccc3n2)cc1`, the IC50 is 22.2 µM.
With `O=C(N/N=C/c1ccc(O)cc1O)/C(=C/c1ccccc1)CCO`, the IC50 was 124 µM.
Turning to `Clc1ccc(Cl)c(OCCCCNCc2ccccc2)c1`, the IC50 is 97.6 µM.
As for `CCCC(=O)NC(c1ccc(Cl)cc1)c1ccc2cccnc2c1O` (stereo not given), the figure is 108 µM; as for `O=C(N/N=C/c1cc([N+](=O)[O-])ccc1O)c1ccncc1`, 24.2 µM; as for `NC(=NCCCCCCN=C(N)/N=C(\N)Nc1ccc(Cl)cc1)/N=C(\N)Nc1ccc(Cl)cc1`, 5.5 µM and 9.19 µM and 14.6 µM.
Then `CCOc1ccc(NC(=O)c2ccc(NC(=O)c3cn4c5c(c(N6CCN(C)CC6)c(F)cc5c3=O)OCC4C)cc2)cc1` (stereo not given), with 6.51 µM.
As for `O=C(N/N=C/c1cccs1)c1cccs1`, the IC50 was 67.8 µM.
As for `COC(=O)c1c(NC(=O)c2ccc([N+](=O)[O-])o2)sc2c1CCN(C(C)C)C2`, the figure is 69.3 µM.
Then `COc1cc(C(=O)Oc2c(CN3CCOCC3)cc(Cl)c3cccnc23)cc(OC)c1OC`, with 126 µM; and `CN(C)c1ccc(O)c2c1CC1CC3C(N(C)C)C(=O)C(C(N)=O)=C(O)[C@@]3(O)C(=O)C1=C2O` (stereo not given in full), with 3.97 µM.
Turning to `CCCCCCCCCCCCCCCC[N+](C)(C)CC`, the IC50 was 25.4 µM.
Then `Nc1cc(Cl)c2nonc2c1[N+](=O)[O-]`, with 54.1 µM.

Values taken from PubChem BioAssay AID2401 (Southern Research Specialized Biocontainment Screening …, 2010).
